The record followed here is US20090306200A1, “Prophylactic or Therapeutic Agent for Nocturnal Conduct Disorder Associated With Dementia” (Takeda Pharmaceutical Company Limited, priority 2005, published 2009).

The test has as its system SAMP8/Ta Slc mice. The experiment in a line: Measurement of rotational motor activity in mouse (turning wheel; motor activity in light period). It counts as in vivo. As to conditions: for Motor Activity in light period, % of Pre: Pre value = 100%; for Motor Activity in light period, %: n = 9. How it is done: Animals: SAMP8/Ta Slc mice (16 weeks old), and SAMR1/Ta Slc mice (16 weeks old) as control mouse were used. After breeding in a rearing room, they were used after the age of 6-month-old to 8-month-old. A sole isolation breeding was conducted during the breeding. AB system of Neuroscience Co. was used for measurement. The mice were put in separate cages, and the turning wheel's rotation number for every minute by mouse was measured, and the data was analyzed as a motor activity for every hour. A turning wheel was equipped in the cage for measurement. The number in which the mouse rotated the turning wheel was automatically counted every minute with AB system (Neuroscience Co.), and recorded with time course as an amount of movement (motor activity). Using the total value of turning wheel's rotation number in habituation stage, each group was evenly grouped. Compound A was dissolved in water for injection, and water for injection was used as a vehicle. The solution and vehicle were administered as drinking water, respectively. The drinking water was replaced with new one every week. Pre: Habituation period (1 week) First week: Vehicle/Compound A 0.1-0.2 mg/kg/day Second week: Vehicle/Compound A 0.1-0.2 mg/kg/day Third week: Vehicle/Compound A 1-2 mg/kg/day Fourth week: Vehicle/Compound A 1-2 mg/kg/day Fifth week: Vehicle/Compound A 1-2 mg/kg/day The number of rotational movement which was automatically counted every minute by AB system (Neuroscience Co.) was tallied for every hour. Calculation was carried out according to the following sequences. (i) By calculating according to the following mathematical formula: (rotational motor activity in light period of a day)/(rotational motor activity in light period of a day+rotational motor activity in dark period of a day)×100, motor activity % in light period was determined. (ii) The mean value of motor activity % in light period was calculated for every week, and was made a representative value for every week. (iii) In addition, in case that the value of Pre was made 100%, rate of change of motor activity % in light period after administration was shown as % of Pre value. Statistical analysis was performed with t-test or Paired t-test for vehicle administration group and compound A administration group of SAMP8.

The mark [1] stands for this setting: 1st week, Compound A 0.1-0.2 mg/kg/day in drinking water.
The mark [2] stands for this setting: 2nd week, Compound A 0.1-0.2 mg/kg/day in drinking water.
Where [3] appears, read: 3rd week, Compound A 1-2 mg/kg/day in drinking water.
Setting [4] is: 4th week, Compound A 1-2 mg/kg/day in drinking water.
Where [5] appears, read: 5th week, Compound A 1-2 mg/kg/day in drinking water.

Marks after values point to notes of the source that are not given here.

For `CCC(=O)NCC[C@@H]1CCc2ccc3c(c21)CCO3` [Compound A, (S)—N-[2-(1,6,7,8-tetrahydro-2H-indeno[5,4-b]furan-8-yl)ethyl]propionamide], under “0.1-0.2 then 1-2 mg/kg/day in drinking water”, the “abnormal behavior in light period of SAMP8” value is recorded as “inhibit dose-dependently”. The “Motor Activity in light period, % of Pre” value runs as follows: under setting [1], 97.67 % of Pre; under setting [2], 79.60 % of Pre; under setting [3], 70.25** % of Pre; under setting [4], 74.77* % of Pre; under setting [5], 71.64* % of Pre. In addition, the “Motor Activity in light period, %” value by setting is: under setting [1], 30.95%; under setting [2], 24.58%; under setting [3], 22.82* %; under setting [4], 23.75* %; under setting [5], 21.18** %. Besides, the “change of the motor activity % in light period and the % of Pre value compared to the vehicle administered group” value (first and second week, 0.1-0.2 mg/kg/day in drinking water) was “there was not observed a change”. Under “third to fifth week, 1-2 mg/kg/day in drinking water”, the “motor activity % in light period and the % of Pre value compared to the vehicle-administered group” value was “decreased”.
